Tests used:
[1] = biological target: JAK2: Recombinant human kinase domain (Homo sapiens, UniProt O60674); assay: JAK2 kinase inhibition, radioactive end-point assay; assay type: biochemical; conditions: 1 nM JAK2, ATP 1.5 uM, peptide 50 uM, 20 minutes, room temperature; read-out: IC50 h-jak2-sf21-c
Description: (§1) Determination of IC50 of Janus Kinase (JAK) Inhibition: […]

[2] = biological target: JAK3: Recombinant human kinase domain (Homo sapiens, UniProt P52333); assay: JAK3 kinase inhibition, radioactive end-point assay; assay type: biochemical; conditions: 0.5 nM or 0.2 nM JAK3, ATP 1.5 uM, peptide 50 uM, 20 minutes, room temperature; read-out: IC50 h-jak3-sf21-c
Description: as §1

[3] = biological target: JAK1: Recombinant human kinase domain (Homo sapiens, UniProt P23458); assay: JAK1 kinase inhibition, radioactive end-point assay; assay type: biochemical; conditions: 5 nM JAK1, ATP 10 uM, peptide 50 uM, 40 minutes, room temperature; read-out: IC50 h-jak1-sf21-c
Description: as §1

[4] = biological target: T1, recombinant human SYK360-635 (Homo sapiens, UniProt P43405); assay: SYK kinase assay, 33P ATP incorporation into biotinylated peptide; assay type: biochemical; conditions: 0.5 nM SYK aa 360-635, ATP 20 μM, peptide 5 μM, 15 min at 30° C.; read-out: IC50 h-syk (360-635)-baculovirus-c
T1 construct: truncated construct of Spleen Tyrosine Kinase aa 360-635; made in house
Method: SYK Assay Information Determination of IC50 of Spleen Tyrosine Kinase (SYK) Inhibition:
SYK kinase assay is a standard kinase assay adapted to a 96 well plate format. This assay is performed in 96-well format for IC50 determination with 8 samples which represented 10 half log dilutions and a 40 μL reaction volume. The assay measures the incorporation of radiolabeled ^33P γATP into an N-terminally biotinylated peptide substrate, derived from naturally occurring phosphoacceptor consensus sequence (Biotin-11aa DY*E). Phosphorylated products were detected upon termination of reactions with EDTA and the addition of Streptavidin coated beads. […]
The unbound radionucleotides were washed under vacuum with 3×250 μL 2M NaCl; 2×250 μL 2M NaCl+1% phosphoric acid; 1×250 μL H2O. After the last wash membrane/plates were transferred to an adaptor plate, heat dried for 15 min at 60° C., and 50 μL scintillation cocktail was added to each well and 4 h later the amount of radioactivity was counted in a top counter.
The percent inhibition was calculated based on the uninhibited enzyme rate: % Inhibition=100/(1+(IC50/Inhibitor cone)^n) • The IC50 was calculated using a non-linear curve fit with XLfit software (ID Business Solution Ltd., Guilford, Surrey, UK).

Sequence of JAK2: Recombinant human kinase domain (O60674 849-1124 limits assumed): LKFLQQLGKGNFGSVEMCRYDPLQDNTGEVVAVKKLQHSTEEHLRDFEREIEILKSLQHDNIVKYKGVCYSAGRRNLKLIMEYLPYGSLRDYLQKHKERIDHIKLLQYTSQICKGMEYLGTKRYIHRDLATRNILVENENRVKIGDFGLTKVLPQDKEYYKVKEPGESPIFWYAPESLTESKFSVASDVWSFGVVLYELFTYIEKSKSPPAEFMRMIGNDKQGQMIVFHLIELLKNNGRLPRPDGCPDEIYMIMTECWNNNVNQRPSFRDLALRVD
Sequence of JAK3: Recombinant human kinase domain (P52333 822-1111 limits assumed): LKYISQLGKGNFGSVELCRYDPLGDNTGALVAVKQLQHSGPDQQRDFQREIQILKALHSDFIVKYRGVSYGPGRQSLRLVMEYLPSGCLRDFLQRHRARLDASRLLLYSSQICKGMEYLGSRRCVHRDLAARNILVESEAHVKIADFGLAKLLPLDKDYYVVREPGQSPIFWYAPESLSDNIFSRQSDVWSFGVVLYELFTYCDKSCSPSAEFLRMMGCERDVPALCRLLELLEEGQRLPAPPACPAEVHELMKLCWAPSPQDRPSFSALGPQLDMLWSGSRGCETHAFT
Sequence of JAK1: Recombinant human kinase domain (P23458 875-1153 limits assumed): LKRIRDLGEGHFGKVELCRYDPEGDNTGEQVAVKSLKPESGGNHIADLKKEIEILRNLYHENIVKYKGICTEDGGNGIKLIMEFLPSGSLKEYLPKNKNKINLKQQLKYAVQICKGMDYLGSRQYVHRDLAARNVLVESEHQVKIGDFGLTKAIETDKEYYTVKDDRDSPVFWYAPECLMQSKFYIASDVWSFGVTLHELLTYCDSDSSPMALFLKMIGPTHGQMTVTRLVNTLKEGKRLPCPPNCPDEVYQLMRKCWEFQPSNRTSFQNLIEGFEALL

| SMILES | melting point [°C] | also measured |
| --- | --- | --- |
| COc1cc(-c2cnc3[nH]cc(C(=O)NCC(C)OC)c3n2)cc(OC)c1OC (stereo not shown) [Example I-82, 2-(3,4,5-Trimethoxy-phenyl)-5H-pyrrolo[2,3-b]pyrazine-7-carboxylic acid (2-methoxy-propyl)-amide] | – | IC50 [1]: 10.8 nM; IC50 [2]: 4.6 nM; IC50 [3]: 90 nM; IC50 [4]: 36 nM |
| COc1cc(-c2cnc3[nH]cc(C(=O)C(C)(C)C)c3n2)cc(OC)c1OC [Example I-12, 2,2-Dimethyl-1-[2-(3,4,5-trimethoxy-phenyl)-5H-pyrrolo[2,3-b]pyrazin-7-yl]-propan-1-one] | – | IC50 [1]: 455 nM; IC50 [2]: 56.1 nM; IC50 [4]: 317 nM |
| COc1cc(-c2cnc3[nH]cc(C(=O)C4(C)CCCCC4)c3n2)cc(OC)c1OC [Example I-117, (1-Methyl-cyclohexyl)-[2-(3,4,5-trimethoxy-phenyl)-5H-pyrrolo[2,3-b]pyrazin-7-yl]-methanone] | – | IC50 [1]: 107 nM; IC50 [2]: 6.8 nM; IC50 [4]: 162 nM |
| CC(C)(C)C(=O)c1c[nH]c2ncc(-c3cccc(N4CCCC4)c3)nc12 [Example I-64, 2,2-Dimethyl-1-[2-(3-pyrrolidin-1-yl-phenyl)-5H-pyrrolo[2,3-b]pyrazin-7-yl]-propan-1-one] | – | IC50 [1]: 3440 nM; IC50 [2]: 24.1 nM; IC50 [3]: 2100 nM; IC50 [4]: 1310 nM |
| COc1cc(-c2cnc3[nH]cc(C(=O)CCC(C)OC)c3n2)cc(OC)c1OC (stereo not shown) [Example 129, 4-Methoxy-1-[2-(3,4,5-trimethoxy-phenyl)-5H-pyrrolo[2,3-b]pyrazin-7-yl]-pentan-1-one] | 150 to 151 | – |
| COc1cccc(-c2cnc3[nH]cc(C(=O)C4(C)CCCCC4)c3n2)c1 [Example 157, [2-(3-Methoxy-phenyl)-5H-pyrrolo[2,3-b]pyrazin-7-yl]-(1-methyl-cyclohexyl)-methanone] | 173 to 175 | – |
| COc1cc(-c2cnc3[nH]cc(C(=O)NCC(C)(C)CO)c3n2)cc(OC)c1OC [Example 15, 2-(3,4,5-Trimethoxy-phenyl)-5H-pyrrolo[2,3-b]pyrazine-7-carboxylic acid (3-hydroxy-2,2-dimethyl-propyl)-amide] | 224 to 225 | – |
| CC(C)(C)C(=O)c1c[nH]c2ncc(-c3ccccc3O)nc12 [Example 152, 1-[2-(2-Hydroxy-phenyl)-5H-pyrrolo[2,3-b]pyrazin-7-yl]-2,2-dimethyl-propan-1-one] | 282 to 283 | – |
| CC(C)(C)C(=O)c1c[nH]c2ncc(-c3cccc(N4CCCC4)c3)nc12 [Example 33, 2,2-dimethyl-1-[2-(3-pyrrolidin-1-yl-phenyl)-5H-pyrrolo[2,3-b]pyrazin-7-yl]-propan-1-one] | 259 to 260 | – |
| CCNC1CCN(c2cccc(-c3cnc4[nH]cc(C(=O)C(C)(C)C)c4n3)c2)C1 (stereo not shown) [Example 208, 1-{2-[3-(3-Ethylamino-pyrrolidin-1-yl)-phenyl]-5H-pyrrolo[2,3-b]pyrazin-7-yl}-2,2-dimethyl-propan-1-one] | 200 to 202 | – |
| CNc1ccc(-c2cnc3[nH]cc(C(=O)C4(C)CCCCC4)c3n2)cc1 [Example 171, [2-(4-Methylamino-phenyl)-5H-pyrrolo[2,3-b]pyrazin-7-yl]-(1-methyl-cyclohexyl)-methanone] | 273 to 275 | – |
| CC(C)(C)C(=O)c1c[nH]c2ncc(-c3cccc(NS(=O)(=O)c4ccccc4)c3)nc12 [Example 234, N-{3-[7-(2,2-Dimethyl-propionyl)-5H-pyrrolo[2,3-b]pyrazin-2-yl]-phenyl}-benzenesulfonamide] | 217 to 219 | – |
| CC(C)(C)C(=O)c1c[nH]c2ncc(-c3cccc(CCCO)c3)nc12 [Example 143, 1-{2-[3-(3-Hydroxy-propyl)-phenyl]-5H-pyrrolo[2,3-b]pyrazin-7-yl}-2,2-dimethyl-propan-1-one] | 170 to 171 | – |
| COc1cc(-c2cnc3[nH]cc(C(=O)C45CC6CC(CC(C6)C4)C5)c3n2)cc(OC)c1OC [Example 162, Adamantan-1-yl-[2-(3,4,5-trimethoxy-phenyl)-5H-pyrrolo[2,3-b]pyrazin-7-yl]-methanone] | 267 to 268 | – |
| COc1cc(-c2cnc3[nH]cc(C(=O)C(C)C)c3n2)cc(OC)c1OC [Example 68, 2-Methyl-1-[2-(3,4,5-trimethoxy-phenyl)-5H-pyrrolo[2,3-b]pyrazin-7-yl]-propan-1-one] | 189 to 190 | – |

More lines, main results first:

| melting point [°C] | SMILES | also measured |
| --- | --- | --- |
| 207 to 208 | CC(C)(C)C(=O)c1c[nH]c2ncc(-c3ccc(OCCN4CCCCC4)cc3)nc12 [Example I-363, 2,2-Dimethyl-1-{2-[4-(2-piperidin-1-yl-ethoxy)-phenyl]-5H-pyrrolo[2,3-b]pyrazin-7-yl}-propan-1-one] | – |
| 243 to 244 | CNC(=O)c1cccc(-c2cnc3[nH]cc(C(=O)CC(C)C)c3n2)c1 [Example I-9, N-Methyl-3-[7-(3-methyl-butyryl)-5H-pyrrolo[2,3-b]pyrazin-2-yl]-benzamide] | – |
| 197 to 198 | CC(C)c1cccc(-c2cnc3[nH]cc(C(=O)C(C)(C)C)c3n2)c1 [Example I-337, 1-[2-(3-Isopropyl-phenyl)-5H-pyrrolo[2,3-b]pyrazin-7-yl]-2,2-dimethyl-propan-1-one] | – |
